According to paper PMC10616469, “Pharmacokinetics and tissue distribution of four major bioactive components of Cynanchum auriculatum extract: a UPLC–MS/MS study in normal and functional dyspepsia rats” (Frontiers in Pharmacology, 2023):
Like-named read-outs stand apart in the source and are kept apart here.

Legend:
[1] = rat, in vivo
Method: (§1) UPLC–MS/MS analysis was conducted using the ACQUITY UPLC system (Waters Corp., Milford, MA, United States) equipped with a Xevo–TQ mass spectrometer (Waters Corp., Milford, MA, United States) with an electrospray ionization (ESI) interface and triple quadrupole mass analyzer.
(§2) The ACQUITY UPLC® BEH C18 column (2.1 mm × 50 mm, 1.7 μm, Waters, United States) was used for separation and was maintained at 40°C. The mobile phase consisted of 0.1% formic acid in water (A) and 0.1% formic acid–acetonitrile (B) for PK study and 0.2% formic acid in water (A) and 0.2% formic acid–acetonitrile (B) for tissue distribution study. The mobile phase was eluted as a gradient, as follows: 0–0.5 min, 10% B; 0.5–3.0 min, 15% B; 3.0–3.2 min, 25% B; 3.2–4.0 min, 30% B; 4.0–4.5 min, 32% B; 4.5–6.0 min, 90% B; and 6.0 min, 10% B. The flow rate was set at 0.35 mL/min and the injection volume was 2 μL for the PK study and 1 μL for the tissue distribution study.
(§3) The four active components of CA were quantified using multiple reaction monitoring under negative ion mode. The following m/z transitions were chosen for quantification: baishouwu benzophenone 301.00→283.00, deacylmetaplexigenin 379.15→361.20, qingyangshengenin 499.20→137.00, syringic acid 197.20→181.95, and puerarin (internal standard, IS) 415.10→267.05. The collision energy was 15, 15, 35, 15, and 35 V, respectively ([Sun et al., 2022]). ESI mode was operated under the following conditions: capillary voltage, 1 kV; desolvation gas (N2), 1000 L/h; collision gas (Ar2), 150 L/h; desolvation temperature, 400°C; and source temperature, 120°C.
(§4) Additionally, stomach and small intestinal tissues were diluted three times to obtain a tissue homogenate. Then, 300 μL of this tissue homogenate was mixed with 30 μL 1% formic acid-water, 20 μL IS, and 1.2 mL acetonitrile. The mixture was then vortexed for 5 min, sonicated for 10 min, and then stored at −20°C for 30 min. Subsequently, the mixture was centrifuged at 14,000 rpm for 10 min. The supernatant obtained was then transferred to another tube and evaporated to dryness at 37°C under nitrogen. The dried residue was reconstituted with 200 μL of the 50% methanol–water, and the centrifugation process was repeated. The obtained supernatant was then used for further analysis.
(§5) SD rats were randomly divided into normal and FD groups (n = 30 each) and orally administered 10 mL/kg of CA extract solution. The rats were sacrificed at 10, 30 min, 1, 2, and 4 h after administration (6 rats per time point). Subsequently, their heart, liver, spleen, lung, kidney, brain, small intestine, and stomach were removed. The tissue samples were then washed in saline solution and wiped with filter paper. Subsequently, all tissues were stored at −80°C until analysis.

[2] = Stability of the four compounds in tissue homogenate samples (QC samples); conditions: mean ± s, n = 5
Method: as §4
The appropriate amount of the reference substance was accurately weighed and dissolved in an appropriate amount of methanol to obtain stock solutions. The concentrations of the resulting stock solution were 0.9996 mg/mL for baishouwu benzophenone, 0.9518 mg/mL for deacylmetaplexigenin, 1.3660 mg/mL for qingyangshengenin, and 0.9898 mg/mL for syringic acid. Accurate volumes of each stock solution were mixed to obtain working solution, which was then serially diluted with methanol to provide standard working solutions. Similarly, QC samples of three concentrations (low, medium, and high) were prepared. All solutions were stored at −20°C for later use.
The following parameters of stability were assessed: short–term stability (24 h at room temperature), processed sample stability (24 h at 4°C), freeze–thaw stability (3 cycles), and auto–sampler stability (6 h at room temperature). QC samples of different concentrations were used for stability analysis.

[3] = Stability of the four compounds in plasma samples (QC samples); conditions: n = 5
Method: In a 1.5 mL EP tube, 100 μL of plasma sample was mixed with 10 µL 1% formic acid–water, 10 μL IS (0.2011 μg/mL), and 400 μL acetonitrile. The mixture was then vortexed for 5 min, followed by sonication for 10 min at 40 kHz and centrifugation at 14,000 rpm for 10 min. The supernatant obtained was transferred to another tube and evaporated to dryness under a nitrogen vacuum at 37°C. The residue obtained was reconstituted with 150 μL of the initial mobile phase, and the centrifugation process was repeated. The supernatant thus obtained was then used for further analysis.
Similarly, QC samples of three concentrations (low, medium, and high) were prepared.
The specificity of the method was evaluated by comparing the retention times of analytes and IS in the blank matrix, blank matrix spiked with the four analytes and IS, and the samples after oral administration of CA extract. Calibration curves were constructed by comparing the ratio of peak areas of the four analytes to that of IS versus the concentration of the four analytes. Calibration curves were fitted via linear weighted (1/X ^ 2 ) least–squares regression. The intra–and inter–day precision and accuracy were estimated by analyzing QC samples at different concentrations on the same day and three consecutive validation days, respectively. The extraction recovery was evaluated by determining the peak area of analytes in QC samples compared with that in extracted matrix samples. The relative standard deviation of the extraction recovery of analytes at each level was retained at ≤20.0%. The following parameters of stability were assessed: short–term stability (24 h at room temperature), processed sample stability (24 h at 4°C), freeze–thaw stability (3 cycles), and auto–sampler stability (6 h at room temperature). QC samples of different concentrations were used for stability analysis.

[4] = PK study: plasma pharmacokinetics after oral administration of CA extract in normal and FD rats (UPLC-MS/MS); assay type: in vivo; conditions: Sprague-Dawley, rat; for AUC(0-inf) / AUC(0-t) / CL/F / Cmax / half-life: n = 6; for Vd/F: n = 6, read-out: Vz/F
Method: For PK experiments, an appropriate amount of the CA extract was weighed to prepare a 0.10 g/mL solution using physiological saline. Briefly, 12 SD rats were randomly assigned to normal and FD groups and were orally administered the prepared CA sample (10 mL/kg body weight). For assessment, 0.3 mL of blood was collected into heparinized tubes via the caudal vein before dosing and at 2, 5, 10, 15, 20, 30, and 45 min, and 1, 2, 4, 8, 12, 24, and 48 h after administration. Blood samples were then immediately centrifuged at 4,500 rpm for 15 min, and the obtained plasma samples were stored at −20°C until determination.
The PK parameters were analyzed using the non–compartment analysis using the WinNonLin 8.2 software (Phoenix, United States). All the data were expressed as mean ± standard deviation (SD). The normal and FD groups were compared using independent samples t–test in SPSS 22.0. Results with p values < 0.05 were considered statistically significant.

[5] = Tissue distribution study after oral administration of CA extract in normal and FD rats; conditions: distribution found in rat brain
Method: as §1, §2, §3, §4, §5

[6] = Brain homogenate, highest QC (ng·mL^-1): Baishouwu benzophenone 131.10, Syringic acid 320.04, Qingyangshengenin 62.12, Deacylmetaplexigenin 677.19
[7] = Brain homogenate, lowest QC (ng·mL^-1): Baishouwu benzophenone 3.34, Syringic acid 8.18, Qingyangshengenin 1.58, Deacylmetaplexigenin 17.26
[8] = Brain homogenate, middle QC (ng·mL^-1): Baishouwu benzophenone 20.88, Syringic acid 51.14, Qingyangshengenin 9.90, Deacylmetaplexigenin 107.87
[9] = Heart homogenate, highest QC (ng·mL^-1): Baishouwu benzophenone 111.56, Syringic acid 340.93, Qingyangshengenin 350.76, Deacylmetaplexigenin 1522.88
[10] = Heart homogenate, lowest QC (ng·mL^-1): Baishouwu benzophenone 2.66, Syringic acid 8.11, Qingyangshengenin 8.35, Deacylmetaplexigenin 36.24
[11] = Heart homogenate, middle QC (ng·mL^-1): Baishouwu benzophenone 18.96, Syringic acid 57.96, Qingyangshengenin 59.63, Deacylmetaplexigenin 258.89
[12] = Kidney homogenate, highest QC (ng·mL^-1): Baishouwu benzophenone 768.40, Syringic acid 1230.44, Qingyangshengenin 844.98, Deacylmetaplexigenin 2249.71
[13] = Kidney homogenate, lowest QC (ng·mL^-1): Baishouwu benzophenone 9.84, Syringic acid 15.75, Qingyangshengenin 10.82, Deacylmetaplexigenin 28.80
[14] = Kidney homogenate, middle QC (ng·mL^-1): Baishouwu benzophenone 81.96, Syringic acid 131.25, Qingyangshengenin 90.13, Deacylmetaplexigenin 239.97
[15] = Liver homogenate, highest QC (ng·mL^-1): Baishouwu benzophenone 313.75, Syringic acid 268.07, Qingyangshengenin 4484.13, Deacylmetaplexigenin 3093.35
[16] = Liver homogenate, lowest QC (ng·mL^-1): Baishouwu benzophenone 1.77, Syringic acid 22.34, Qingyangshengenin 25.26, Deacylmetaplexigenin 16.38
[17] = Liver homogenate, middle QC (ng·mL^-1): Baishouwu benzophenone 27.19, Syringic acid 89.35, Qingyangshengenin 386.62, Deacylmetaplexigenin 268.09
[18] = Lung homogenate, highest QC (ng·mL^-1): Baishouwu benzophenone 630.29, Syringic acid 662.80, Qingyangshengenin 385.86, Deacylmetaplexigenin 1513.71
[19] = Lung homogenate, lowest QC (ng·mL^-1): Baishouwu benzophenone 17.66, Syringic acid 18.57, Qingyangshengenin 10.81, Deacylmetaplexigenin 42.42
[20] = Lung homogenate, middle QC (ng·mL^-1): Baishouwu benzophenone 105.98, Syringic acid 111.44, Qingyangshengenin 64.88, Deacylmetaplexigenin 254.52
[21] = Small intestine homogenate, highest QC (ng·mL^-1): Baishouwu benzophenone 39.22, Syringic acid 773.28, Qingyangshengenin 1726.39, Deacylmetaplexigenin 1206.41
[22] = Small intestine homogenate, lowest QC (ng·mL^-1): Baishouwu benzophenone 0.46, Syringic acid 9.31, Qingyangshengenin 20.77, Deacylmetaplexigenin 14.52
[23] = Small intestine homogenate, middle QC (ng·mL^-1): Baishouwu benzophenone 4.97, Syringic acid 97.95, Qingyangshengenin 218.68, Deacylmetaplexigenin 152.81
[24] = Spleen homogenate, highest QC (ng·mL^-1): Baishouwu benzophenone 658.88, Syringic acid 752.66, Qingyangshengenin 418.52, Deacylmetaplexigenin 1979.74
[25] = Spleen homogenate, lowest QC (ng·mL^-1): Baishouwu benzophenone 10.98, Syringic acid 12.54, Qingyangshengenin 6.98, Deacylmetaplexigenin 33.00
[26] = Spleen homogenate, middle QC (ng·mL^-1): Baishouwu benzophenone 87.85, Syringic acid 100.35, Qingyangshengenin 55.80, Deacylmetaplexigenin 263.97
[27] = Stomach homogenate, highest QC (ng·mL^-1): Baishouwu benzophenone 47.06, Syringic acid 257.76, Qingyangshengenin 1285.45, Deacylmetaplexigenin 1665.65
[28] = Stomach homogenate, lowest QC (ng·mL^-1): Baishouwu benzophenone 0.63, Syringic acid 3.44, Qingyangshengenin 17.14, Deacylmetaplexigenin 22.21
[29] = Stomach homogenate, middle QC (ng·mL^-1): Baishouwu benzophenone 6.28, Syringic acid 34.37, Qingyangshengenin 171.39, Deacylmetaplexigenin 222.09
[30] = high QC (nominal 1666.00 / 3172.53 / 569.17 / 206.21 ng·mL^-1)
[31] = low QC (nominal 52.06 / 49.57 / 8.89 / 1.61 ng·mL^-1)
[32] = medium QC (nominal 208.25 / 396.57 / 71.13 / 25.78 ng·mL^-1)
[33] = FD group rats, oral CA extract (0.10 g/mL solution, 10 mL/kg)
[34] = Normal group rats, oral CA extract (0.10 g/mL solution, 10 mL/kg)

CC(=O)C1(O)CCC2(O)C3(O)CC=C4CC(O)CCC4(C)C3CC(O)C12C (stereo not shown) [Deacylmetaplexigenin]
time after oral administration at which almost completely metabolized in tissues ([1]; Sprague-Dawley): 4 h
time of peak in most of organ tissues ([1]; Sprague-Dawley, po): 0.17 to 0.5 h
tissue with the highest concentration ([1]; po): stomach and small intestine
Auto-sampler for 6 h Measured concentration [2, 6]: 639.39 ± 12.53 ng/mL
Three freeze-thaw cycles Measured concentration [2, 6]: 657.30 ± 18.60 ng/mL
Auto-sampler for 6 h Measured concentration [2, 7]: 16.37 ± 0.20 ng/mL
Three freeze-thaw cycles Measured concentration [2, 7]: 16.11 ± 0.43 ng/mL
Auto-sampler for 6 h Measured concentration [2, 8]: 106.81 ± 0.35 ng/mL
Three freeze-thaw cycles Measured concentration [2, 8]: 107.57 ± 1.64 ng/mL
Auto-sampler for 6 h Measured concentration [2, 9]: 1545.69 ± 28.28 ng/mL
Three freeze-thaw cycles Measured concentration [2, 9]: 1530.72 ± 31.74 ng/mL
Auto-sampler for 6 h Measured concentration [2, 10]: 29.91 ± 0.63 ng/mL
Three freeze-thaw cycles Measured concentration [2, 10]: 30.14 ± 0.33 ng/mL
Auto-sampler for 6 h Measured concentration [2, 11]: 253.92 ± 7.65 ng/mL
Three freeze-thaw cycles Measured concentration [2, 11]: 251.51 ± 4.47 ng/mL
Auto-sampler for 6 h Measured concentration [2, 12]: 2268.44 ± 53.12 ng/mL
Three freeze-thaw cycles Measured concentration [2, 12]: 2270.72 ± 48.43 ng/mL
Auto-sampler for 6 h Measured concentration [2, 13]: 30.96 ± 0.89 ng/mL
Three freeze-thaw cycles Measured concentration [2, 13]: 30.51 ± 1.21 ng/mL
Auto-sampler for 6 h Measured concentration [2, 14]: 267.87 ± 13.29 ng/mL
Three freeze-thaw cycles Measured concentration [2, 14]: 266.54 ± 9.78 ng/mL
Auto-sampler for 6 h Measured concentration [2, 15]: 3350.30 ± 128.16 ng/mL
Three freeze-thaw cycles Measured concentration [2, 15]: 3302.83 ± 129.48 ng/mL
Auto-sampler for 6 h Measured concentration [2, 16]: 15.66 ± 0.68 ng/mL
Three freeze-thaw cycles Measured concentration [2, 16]: 15.51 ± 0.68 ng/mL
Auto-sampler for 6 h Measured concentration [2, 17]: 249.04 ± 7.02 ng/mL
Three freeze-thaw cycles Measured concentration [2, 17]: 245.11 ± 4.40 ng/mL
Auto-sampler for 6 h Measured concentration [2, 18]: 1544.16 ± 36.02 ng/mL
Three freeze-thaw cycles Measured concentration [2, 18]: 1549.77 ± 41.79 ng/mL
Auto-sampler for 6 h Measured concentration [2, 19]: 38.33 ± 2.37 ng/mL
Three freeze-thaw cycles Measured concentration [2, 19]: 37.62 ± 2.38 ng/mL
Auto-sampler for 6 h Measured concentration [2, 20]: 243.55 ± 12.09 ng/mL
Three freeze-thaw cycles Measured concentration [2, 20]: 240.11 ± 10.98 ng/mL
Auto-sampler for 6 h Measured concentration [2, 21]: 1293.63 ± 65.40 ng/mL
Three freeze-thaw cycles Measured concentration [2, 21]: 1296.24 ± 110.99 ng/mL
Auto-sampler for 6 h Measured concentration [2, 22]: 12.77 ± 1.27 ng/mL
Three freeze-thaw cycles Measured concentration [2, 22]: 12.39 ± 1.33 ng/mL
Auto-sampler for 6 h Measured concentration [2, 23]: 150.09 ± 2.73 ng/mL
Three freeze-thaw cycles Measured concentration [2, 23]: 154.01 ± 1.23 ng/mL
Auto-sampler for 6 h Measured concentration [2, 24]: 1990.73 ± 48.18 ng/mL
Three freeze-thaw cycles Measured concentration [2, 24]: 1950.06 ± 62.22 ng/mL
Auto-sampler for 6 h Measured concentration [2, 25]: 31.95 ± 1.48 ng/mL
Three freeze-thaw cycles Measured concentration [2, 25]: 32.15 ± 1.58 ng/mL
Auto-sampler for 6 h Measured concentration [2, 26]: 232.19 ± 3.53 ng/mL
Three freeze-thaw cycles Measured concentration [2, 26]: 247.56 ± 6.23 ng/mL
Auto-sampler for 6 h Measured concentration [2, 27]: 1622.87 ± 76.11 ng/mL
Three freeze-thaw cycles Measured concentration [2, 27]: 1662.82 ± 50.13 ng/mL
Auto-sampler for 6 h Measured concentration [2, 28]: 21.14 ± 1.50 ng/mL
Three freeze-thaw cycles Measured concentration [2, 28]: 21.58 ± 1.95 ng/mL
Auto-sampler for 6 h Measured concentration [2, 29]: 244.68 ± 7.59 ng/mL
Three freeze-thaw cycles Measured concentration [2, 29]: 245.34 ± 9.19 ng/mL
Measured concentration, 4°C for 24 h [3, 30]: 3164.75 ± 84.97 ng/mL
Measured concentration, Three freeze-thaw cycles [3, 30]: 3053.63 ± 57.47 ng/mL
Measured concentration, 4°C for 24 h [3, 31]: 52.01 ± 2.68 ng/mL
Measured concentration, Three freeze-thaw cycles [3, 31]: 53.08 ± 3.47 ng/mL
Measured concentration, 4°C for 24 h [3, 32]: 406.61 ± 10.59 ng/mL
Measured concentration, Three freeze-thaw cycles [3, 32]: 352.32 ± 6.40 ng/mL
Tmax ([4]; 1 g/kg, oral CA extract, normal and FD rats, read-out: time of peak concentration (Tmax)): 20 to 30 min
AUC(0-inf) [4, 33]: 13900 ng·h/mL
AUC(0-t) [4, 33]: 13300 ng·h/mL
CL/F [4, 33]: 16.5 mL/min/kg
Cmax [4, 33]: 4510 ± 241 ng/mL
half-life [4, 33]: 772 ± 454 min
Tmax ([4]; FD group rats, oral CA extract (0.10 g/mL solution, 10 mL/kg), n = 6, read-out: Tmax): 19.8 ± 4.8 min
Vd/F [4, 33]: 18.1 ± 10.6 L/kg
AUC(0-inf) [4, 34]: 12300 ng·h/mL
AUC(0-t) [4, 34]: 11600 ng·h/mL
CL/F [4, 34]: 19.2 mL/min/kg
Cmax [4, 34]: 4680 ± 499 ng/mL
half-life [4, 34]: 602 ± 190 min
Tmax ([4]; Normal group rats, oral CA extract (0.10 g/mL solution, 10 mL/kg), n = 6, read-out: Tmax): 25.2 ± 6.6 min
Vd/F [4, 34]: 16 ± 3.79 L/kg
crossing of the blood-brain barrier [5]: could cross the blood-brain barrier
